Data on 2 compounds can be found in patent US9493432B2, “Cyclopentylbenzamide derivatives and their use for the treatment of psychotic and cognitive disorders” (Takeda Pharmaceutical Company Limited, priority 2013, dated 2016).

Each structure is given as a SMILES string.

The target in one test is human orexin receptor 2 (Homo sapiens (Human), UniProt O43614). Kind of test: Orexin antagonist activity, intracellular calcium FLIPR assay (orexin receptor 2). Format: cell-based. Conditions: RBL-2H3 cells stably expressing human orexin receptor 2; Ca2+ dye FLIPR; compound 15 minutes before orexin-A at approximately 80% maximal response; read-out: Human Orexin2R IC50. The gist of the method:
(§1)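 RBL-2H3 cells stably expressing human OX1 or OX2 were loaded with Calcium 5 dye for 1 h at 37 °C. Compounds were added 15 min before orexin-A at a concentration giving ~80% maximal response, and Ca2+ fluorescence was read by FLIPR.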

In a further test the target is human orexin receptor 1 (Homo sapiens (Human), UniProt O43613). Put plainly: Orexin antagonist activity, intracellular calcium FLIPR assay (orexin receptor 1). Format: cell-based. As to conditions: RBL-2H3 cells stably expressing human orexin receptor 1; Ca2+ dye FLIPR; compound 15 minutes before orexin-A at approximately 80% maximal response; read-out: Human Orexin1R IC50. The gist of the method:
as §1
(A change in cytosolic calcium serves as a functional read-out for many receptors and channels.)

Chain of human orexin receptor 1 (O43613 whole entry): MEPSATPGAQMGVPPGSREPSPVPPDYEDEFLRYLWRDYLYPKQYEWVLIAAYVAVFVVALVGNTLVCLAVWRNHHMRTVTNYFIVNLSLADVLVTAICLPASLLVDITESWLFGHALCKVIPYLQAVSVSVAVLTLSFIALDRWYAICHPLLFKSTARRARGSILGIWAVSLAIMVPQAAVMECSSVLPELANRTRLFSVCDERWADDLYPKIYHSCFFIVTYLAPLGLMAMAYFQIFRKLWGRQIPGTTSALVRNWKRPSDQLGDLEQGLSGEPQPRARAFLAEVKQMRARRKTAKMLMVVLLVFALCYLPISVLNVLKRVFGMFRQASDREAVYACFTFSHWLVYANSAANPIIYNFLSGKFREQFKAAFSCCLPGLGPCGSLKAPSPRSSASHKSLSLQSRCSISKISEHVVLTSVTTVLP
Chain of human orexin receptor 2 (O43614 whole entry): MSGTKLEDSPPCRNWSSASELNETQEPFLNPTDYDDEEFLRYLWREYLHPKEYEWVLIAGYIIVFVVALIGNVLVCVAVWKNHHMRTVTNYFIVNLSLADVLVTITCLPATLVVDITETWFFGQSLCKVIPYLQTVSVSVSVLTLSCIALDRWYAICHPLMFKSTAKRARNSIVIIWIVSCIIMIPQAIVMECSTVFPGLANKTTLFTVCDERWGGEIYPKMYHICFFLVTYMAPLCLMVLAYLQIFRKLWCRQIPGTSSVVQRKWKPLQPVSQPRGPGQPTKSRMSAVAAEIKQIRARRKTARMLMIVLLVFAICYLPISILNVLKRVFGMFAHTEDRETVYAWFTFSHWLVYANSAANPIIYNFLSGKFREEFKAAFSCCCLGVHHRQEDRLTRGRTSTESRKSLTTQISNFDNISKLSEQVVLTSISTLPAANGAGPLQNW

As a reminder, the IC50 is the concentration that inhibits the measured activity by half. In the case of `CC1(Nc2nc3ccc(F)cc3s2)CCCC1NC(=O)c1ccccc1-n1nccn1` (stereo not shown) [Example 107, N-{2-[(6-Fluoro-1,3-benzothiazol-2-yl)amino]-2-methylcyclopentyl}-2-(2H-1,2,3-triazol-2-yl)benzamide], the IC50 on human orexin receptor 2 turned out to be 0.06 µM; at human orexin receptor 1 it was 0.007 µM.

On to `CC1(Nc2nc3ccc(Cl)cc3s2)CCCC1NC(=O)c1ccccc1-n1nccn1` (stereo not shown) [Example 108, N-{2-[(6-Chloro-1,3-benzothiazol-2-yl)amino]-2-methylcyclopentyl}-2-(2H-1,2,3-triazol-2-yl)benzamide], for which the results for the IC50 on human orexin receptor 2 and at human orexin receptor 1 were 0.186 µM and 0.013 µM, respectively.
